Measurements published in paper PMC11859928, “Design, Synthesis, and Antiproliferative Activity of Novel Indole/1,2,4-Triazole Hybrids as Tubulin Polymerization Inhibitors” (Pharmaceuticals, 2025).

What was measured:
Assay in all cases: NCI one-dose assay
Type in all cases: cell-based
A549/ATCC = conditions: Homo sapiens, Non-small cell lung cancer, read-out: Cell growth inhibition %
Procedure: (§1) The National Cancer Institute (NCI), Bethesda, USA, selected the final compounds 6a–j and 7a–j for in vitro anticancer screening. An initial in vitro single-dose anticancer experiment was performed with the entire NCI 60 cell lines derived from nine tumor subpanel cancer cell lines. The results for each compound were illustrated as a mean graph showing the percentage growth of treated cells compared to untreated control cells (see Supplementary Materials).
(§2) The NCI anticancer screening process has been thoroughly detailed. The Drug Evaluation Branch of the National Cancer Institute in Bethesda, […], USA, established the procedure and conducted the anticancer assay on 60 human tumor cell lines from nine neoplastic cancers.

ACHN = conditions: Homo sapiens, Renal cancer, read-out: Cell growth inhibition %
Procedure: as §1, §2

BT-549 = conditions: Homo sapiens, BT-549, Breast cancer, read-out: Cell growth inhibition %
Procedure: as §1, §2

CAKI-1 = conditions: Homo sapiens, CAKI-1, Renal cancer, read-out: Cell growth inhibition %
Procedure: as §1, §2

CCRF-CEM = conditions: Homo sapiens, Leukemia, read-out: Cell growth inhibition %
Procedure: as §1, §2

COLO 205 = conditions: Homo sapiens, COLO 205, Colon cancer, read-out: Cell growth inhibition %
Procedure: as §1, §2

DU-145 = conditions: Homo sapiens, DU-145, Prostate cancer, read-out: Cell growth inhibition %
Procedure: as §1, §2

EKVX = conditions: Homo sapiens, Non-small cell lung cancer, read-out: Cell growth inhibition %
Procedure: as §1, §2

HCC-2998 = conditions: Homo sapiens, HCC-2998, Colon cancer, read-out: Cell growth inhibition %
Procedure: as §1, §2

HCT-116 = conditions: Homo sapiens, HCT-116, Colon cancer, read-out: Cell growth inhibition %
Procedure: as §1, §2

HCT-15 = conditions: Homo sapiens, HCT-15, Colon cancer, read-out: Cell growth inhibition %
Procedure: as §1, §2

HL-60(TB) = conditions: Homo sapiens, Leukemia, read-out: Cell growth inhibition %
Procedure: as §1, §2

HS 578 T = conditions: Homo sapiens, Breast cancer, read-out: Cell growth inhibition %
Procedure: as §1, §2

IGROV1 = conditions: Homo sapiens, IGROV-1, IGROV1, Ovarian cancer, read-out: Cell growth inhibition %
Procedure: as §1, §2

K-562 = conditions: Homo sapiens, K562, K-562, Leukemia, read-out: Cell growth inhibition %
Procedure: as §1, §2

KM12 = conditions: Homo sapiens, KM12, Colon cancer, read-out: Cell growth inhibition %
Procedure: as §1, §2

MALME-3M = conditions: Homo sapiens, Melanoma, read-out: Cell growth inhibition %
Procedure: as §1, §2

MDA-MB-231/ATCC = conditions: Homo sapiens, Breast cancer, read-out: Cell growth inhibition %
Procedure: as §1, §2

MOLT-4 = conditions: Homo sapiens, MOLT-4, Leukemia, read-out: Cell growth inhibition %
Procedure: as §1, §2

NCI-H226 = conditions: Homo sapiens, NCI-H226, Non-small cell lung cancer, read-out: Cell growth inhibition %
Procedure: as §1, §2

NCI-H23 = conditions: Homo sapiens, NCI-H23, Non-small cell lung cancer, read-out: Cell growth inhibition %
Procedure: as §1, §2

NCI-H460 = conditions: Homo sapiens, NCI-H460, Non-small cell lung cancer, read-out: Cell growth inhibition %
Procedure: as §1, §2

NCI-H522 = conditions: Homo sapiens, NCI-H522, Non-small cell lung cancer, read-out: Cell growth inhibition %
Procedure: as §1, §2

NCI/ADR-RES = conditions: Homo sapiens, Ovarian cancer, read-out: Cell growth inhibition %
Procedure: as §1, §2

OVCAR-3 = conditions: Homo sapiens, OVCAR-3, Ovarian cancer, read-out: Cell growth inhibition %
Procedure: as §1, §2

OVCAR-5 = conditions: Homo sapiens, OVCAR-5, Ovarian cancer, read-out: Cell growth inhibition %
Procedure: as §1, §2

PC-3 = conditions: Homo sapiens, PC-3, Prostate cancer, read-out: Cell growth inhibition %
Procedure: as §1, §2

RPMI-8226 = conditions: Homo sapiens, RPMI-8226, Leukemia, read-out: Cell growth inhibition %
Procedure: as §1, §2

SF-295 = conditions: Homo sapiens, SF-295, CNS cancer, read-out: Cell growth inhibition %
Procedure: as §1, §2

SF-539 = conditions: Homo sapiens, SF-539, CNS cancer, read-out: Cell growth inhibition %
Procedure: as §1, §2

SK-MEL-28 = conditions: Homo sapiens, SK-MEL-28, Melanoma, read-out: Cell growth inhibition %
Procedure: as §1, §2

SK-OV-3 = conditions: Homo sapiens, SK-OV-3, Ovarian cancer, read-out: Cell growth inhibition %
Procedure: as §1, §2

SN12C = conditions: Homo sapiens, Renal cancer, read-out: Cell growth inhibition %
Procedure: as §1, §2

SR = conditions: Homo sapiens, Leukemia, read-out: Cell growth inhibition %
Procedure: as §1, §2

U251 = conditions: Homo sapiens, U-251, U251, CNS cancer, read-out: Cell growth inhibition %
Procedure: as §1, §2

UACC-257 = conditions: Homo sapiens, UACC-257, Melanoma, read-out: Cell growth inhibition %
Procedure: as §1, §2

UACC-62 = conditions: Homo sapiens, UACC-62, Melanoma, read-out: Cell growth inhibition %
Procedure: as §1, §2

| SMILES | inhibition at 10 µM (A549/ATCC) | inhibition at 10 µM (ACHN) | inhibition at 10 µM (BT-549) | inhibition at 10 µM (CAKI-1) | inhibition at 10 µM (CCRF-CEM) | inhibition at 10 µM (COLO 205) | inhibition at 10 µM (DU-145) | inhibition at 10 µM (EKVX) | inhibition at 10 µM (HCC-2998) | inhibition at 10 µM (HCT-116) | inhibition at 10 µM (HCT-15) | inhibition at 10 µM (HL-60(TB)) | inhibition at 10 µM (HS 578 T) | inhibition at 10 µM (IGROV1) | inhibition at 10 µM (K-562) | inhibition at 10 µM (KM12) | inhibition at 10 µM (MALME-3M) | inhibition at 10 µM (MDA-MB-231/ATCC) | inhibition at 10 µM (MOLT-4) | inhibition at 10 µM (NCI-H226) | also measured |
| --- | --- | --- | --- | --- | --- | --- | --- | --- | --- | --- | --- | --- | --- | --- | --- | --- | --- | --- | --- | --- | --- |
| C=CCn1c(SCC(=O)c2ccc(Br)cc2)nnc1-c1c[nH]c2ccccc12 [Compound 6d, 2-((4-Allyl-5-(1H-indol-3-yl)-4H-1,2,4-triazol-3-yl)thio)-1-(4-bromophenyl)ethenone] | -3.29% | 11.7% | -5.98% | 9.77% | 2.08% | -7.53% | -6.19% | 7.22% | -4.47% | 6.53% | 0.98% | 7.71% | -5.71% | 13.3% | 14.5% | -2.46% | 9.34% | 3.15% | 8.82% | 9.93% | inhibition at 10 µM (NCI-H23): 4.98%; inhibition at 10 µM (NCI-H460): -6.13%; inhibition at 10 µM (NCI-H522): 3.7%; inhibition at 10 µM (NCI/ADR-RES): 1.17%; inhibition at 10 µM (OVCAR-3): -10.4%; inhibition at 10 µM (OVCAR-5): 3.19%; inhibition at 10 µM (PC-3): 21.7%; inhibition at 10 µM (RPMI-8226): 1.17%; inhibition at 10 µM (SF-295): 6.78%; inhibition at 10 µM (SF-539): 8.23%; inhibition at 10 µM (SK-MEL-28): 3.9%; inhibition at 10 µM (SK-OV-3): -13.1%; inhibition at 10 µM (SN12C): 4.39%; inhibition at 10 µM (SR): 11.3%; inhibition at 10 µM (U251): 0.12%; inhibition at 10 µM (UACC-257): -7.6%; inhibition at 10 µM (UACC-62): 16.9% |
| C=CCn1c(SCC(=O)c2ccc(Cl)cc2)nnc1-c1c[nH]c2ccccc12 [Compound 6e, 2-((4-Allyl-5-(1H-indol-3-yl)-4H-1,2,4-triazol-3-yl)thio)-1-(4-chlorophenyl)ethenone] | 3.63% | 7.39% | -0.26% | 7.04% | 2.28% | -11.1% | -14.4% | 8.21% | -15.6% | 6.8% | 6.28% | 10.8% | -3.65% | 7.38% | 10.1% | -3.89% | 9.28% | 8.19% | 10.6% | 10.3% | inhibition at 10 µM (NCI-H23): -7.09%; inhibition at 10 µM (NCI-H460): -3.47%; inhibition at 10 µM (NCI-H522): 7.55%; inhibition at 10 µM (NCI/ADR-RES): -2.31%; inhibition at 10 µM (OVCAR-3): -12.2%; inhibition at 10 µM (OVCAR-5): -5.38%; inhibition at 10 µM (PC-3): 22.3%; inhibition at 10 µM (RPMI-8226): 7.71%; inhibition at 10 µM (SF-295): 3.57%; inhibition at 10 µM (SF-539): 0.21%; inhibition at 10 µM (SK-MEL-28): -10.1%; inhibition at 10 µM (SK-OV-3): -20.6%; inhibition at 10 µM (SN12C): 4.38%; inhibition at 10 µM (SR): 12.2%; inhibition at 10 µM (U251): 3.75%; inhibition at 10 µM (UACC-257): 2.2%; inhibition at 10 µM (UACC-62): 14.7% |
| O=C(CSc1nnc(-c2c[nH]c3ccccc23)n1-c1ccccc1)c1ccccc1 [Compound 6f, 2-((5-(1H-indol-3-yl)-4-phenyl-4H-1,2,4-triazol-3-yl)thio)-1-phenylethanone] | 14.5% | 39.5% | 37.8% | 46.8% | 8.65% | 6.63% | 14.3% | 31.6% | 16.9% | 62% | 20.6% | 12.8% | 75.9% | 44.9% | 47.2% | 30.5% | 62.6% | 73% | 9.43% | 95.5% | inhibition at 10 µM (NCI-H23): 55.1%; inhibition at 10 µM (NCI-H460): 38.2%; inhibition at 10 µM (NCI-H522): 28.4%; inhibition at 10 µM (NCI/ADR-RES): 85.2%; inhibition at 10 µM (OVCAR-3): 39.2%; inhibition at 10 µM (OVCAR-5): 11.4%; inhibition at 10 µM (PC-3): 34.2%; inhibition at 10 µM (RPMI-8226): 18.7%; inhibition at 10 µM (SF-295): 28%; inhibition at 10 µM (SF-539): 92.4%; inhibition at 10 µM (SK-MEL-28): 0.04%; inhibition at 10 µM (SK-OV-3): 14.4%; inhibition at 10 µM (SN12C): 55.3%; inhibition at 10 µM (SR): 18.4%; inhibition at 10 µM (U251): 89.2%; inhibition at 10 µM (UACC-257): -3.2%; inhibition at 10 µM (UACC-62): 26.6% |
